The text below walks through data of patent publication US9593107B2, “Dihydroquinoline-2-one derivatives” (Hoffmann-La Roche Inc., priority 2014, dated 2017).

Experiment [1] deals with T1, human CYP11B1 (Homo sapiens, UniProt P15538).
T1 construct: expressed in transfected cells
T1 sequence (P15538 25-503): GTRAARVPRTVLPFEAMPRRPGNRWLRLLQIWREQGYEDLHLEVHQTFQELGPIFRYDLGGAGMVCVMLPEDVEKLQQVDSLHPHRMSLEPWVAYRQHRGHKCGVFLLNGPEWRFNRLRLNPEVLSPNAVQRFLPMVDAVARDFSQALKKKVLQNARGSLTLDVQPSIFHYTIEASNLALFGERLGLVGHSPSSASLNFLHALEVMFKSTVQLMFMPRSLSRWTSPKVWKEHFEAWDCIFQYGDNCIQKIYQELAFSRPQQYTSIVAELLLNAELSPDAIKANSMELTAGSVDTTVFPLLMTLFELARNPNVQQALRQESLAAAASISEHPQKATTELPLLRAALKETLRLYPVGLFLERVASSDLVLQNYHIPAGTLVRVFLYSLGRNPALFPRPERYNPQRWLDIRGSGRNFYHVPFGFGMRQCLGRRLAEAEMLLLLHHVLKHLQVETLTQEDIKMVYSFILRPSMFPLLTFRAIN
Kind of experiment: G-402 cellular enzyme assay, human CYP11B1 (cortisol release, HTRF). In kind it is cell-based. To be noted: G-402 cells expressing human CYP11B1; 1 μM Deoxycortisol. The source says: (§1) Herein we identified the use of the G-402 cell line as a host cell to ectopically express (transiently or stably) enzymes of the CYP11 family. Specifically we developed stable G-402 cells expressing ectopically human CYP11B1, human CYP11B2, human CYP11A1, cynmolgus CYP11B1 or cynomolgus CYP11B2 enzyme activity. Importantly the identified cell line G-402 expresses co-factors (adrenodoxin and adrenodoxin reductase) important for the activity of the CYP11 family and no relevant enzyme activity of the CYP11 family (in comparison to H295R cells) was detected in these cells. Therefore the G-402 cell line is uniquely suited as a host cell for the ectopic expression of enzymes from the CYP11 family.
(§2) The expression plasmids contains the ORF for either human/cyno CYP11B1 or CYP11B2 under the control of a suitable promoter (CMV-promoter) and a suitable resistance marker (neomycin). Using standard techniques the expression plasmid is transfected into G-402 cells and these cells are then selected for expressing the given resistance markers. Individual cell-clones are then selected and assessed for displaying the desired enzymatic activity using 11-Deoxycorticosterone (Cyp11B2) or 11-Deoxycortisol (Cyp11B1) as a substrate.
(§3) G-402 cells expressing CYP11 constructs were established as described above and maintained in McCoy's 5a Medium Modified, ATCC Catalog No. 30-2007 containing 10% FCS and 400 μg/ml G418 (Geneticin) at 37° C. under an atmosphere of 5% CO2/95% air.
(§4) Cellular enzyme assays were performed in DMEM/F12 medium containing 2.5% charcoal treated FCS and appropriate concentration of substrate (0.3-10 uM 11-Deoxycorticosterone, 11-Deoxycortisol or Corticosterone). For assaying enzymatic activity, cells were plated onto 96 well plates and incubated for 16 h. An aliquot of the supernatant is then transferred and analyzed for the concentration of the expected product (Aldosterone for CYP11B2; Cortisol for CYP11B1). The concentrations of these steroids can be determined using HTRF assays from CisBio analyzing either Aldosterone or Cortisol.
(§5) Inhibition of the release of produced steroids can be used as a measure of the respective enzyme inhibition by test compounds added during the cellular enzyme assay. The dose dependent inhibition of enzymatic activity by a compound is calculated by means of plotting added inhibitor concentrations (x-axes) vs. measured steroid/product level (y-axes). The inhibition is then calculated by fitting the following 4-parameter sigmoidal function (Morgan-Mercer-Flodin (MMF) model) to the raw data points using the least squares method:
(§6) [formula] wherein, A is the maximum y value, B is the EC50 factor determined using XLFit, C is the minimum y value and D is the slope value.
(§7) EC50 values for compounds claimed herein were tested with the G402-based assay system described. Cyp11B2 enzyme activity was tested in presence of 1 μM Deoxycorticosterone and variable amounts of inhibitors; Cyp11B1 enzyme activity was tested in presence of 1 μM Deoxycortisol and variable amounts of inhibitors.
For orientation: TR-FRET usually uses a lanthanide donor and a delayed reading to cut background.

Experiment [2] deals with T2, human CYP11B2 (Homo sapiens, UniProt P19099).
T2 construct: expressed in transfected cells
T2 sequence (P19099 25-503): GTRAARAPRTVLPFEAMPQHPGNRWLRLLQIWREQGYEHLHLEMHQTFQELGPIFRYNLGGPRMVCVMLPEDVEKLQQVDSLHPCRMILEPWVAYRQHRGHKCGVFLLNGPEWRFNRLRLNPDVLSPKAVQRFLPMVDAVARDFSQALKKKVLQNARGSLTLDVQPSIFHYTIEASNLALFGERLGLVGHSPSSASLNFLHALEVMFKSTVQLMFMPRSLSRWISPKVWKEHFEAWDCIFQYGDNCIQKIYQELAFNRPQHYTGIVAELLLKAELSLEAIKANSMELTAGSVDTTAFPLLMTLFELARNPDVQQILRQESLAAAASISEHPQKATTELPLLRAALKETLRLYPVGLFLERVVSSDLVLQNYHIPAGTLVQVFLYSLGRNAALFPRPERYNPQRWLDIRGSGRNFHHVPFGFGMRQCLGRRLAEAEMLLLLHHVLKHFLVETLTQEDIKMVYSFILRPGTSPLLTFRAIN
The experiment can be described thus: G-402 cellular enzyme assay, human CYP11B2 (aldosterone release, HTRF). The class given is cell-based. To be noted: G-402 cells expressing human CYP11B2; 1 μM Deoxycorticosterone.
Description: as §1, §2, §3, §4, §5, §6, §7

As for `Cc1c(Cn2c(C)cccc2=O)cncc1-c1cc2c(cc1F)N(C)C(=O)CC2` [Example 24, 7-Fluoro-1-methyl-6-[4-methyl-5-(6-methyl-2-oxo-2H-pyridin-1-ylmethyl)-pyridin-3-yl]-3,4-dihydro-1H-quinolin-2-one], the EC50 was found to be 2140 nM in experiment [1] and 16.5 nM in experiment [2].
In the same order, the values of `CN1C(=O)CCc2cc(-c3cncc(Cn4cccc(F)c4=O)c3)ccc21` [Example 6, 6-[5-(3-Fluoro-2-oxo-2H-pyridin-1-ylmethyl)-pyridin-3-yl]-1-methyl-3,4-dihydro-1H-quinolin-2-one] are 4070 nM and 32.7 nM.
In the same order, the values of `CN1C(=O)CCc2cc(-c3cncc(Cn4cccc(C(F)(F)F)c4=O)c3)ccc21` [Example 11, 1-Methyl-6-[5-(2-oxo-3-trifluoromethyl-2H-pyridin-1-ylmethyl)-pyridin-3-yl]-3,4-dihydro-1H-quinolin-2-one] are 738 nM and 18.1 nM.
Regarding `Cc1cccc(=O)n1Cc1cncc(-c2ccc3c(c2)CCC(=O)N3C)c1` [Example 7, 1-Methyl-6-[5-(6-methyl-2-oxo-2H-pyridin-1-ylmethyl)-pyridin-3-yl]-3,4-dihydro-1H-quinolin-2-one], the EC50 came out at 820 nM in experiment [1] and 8.8 nM in experiment [2].
In the same order, the values of `Cc1cccc(=O)n1Cc1cncc(-c2cc3c(cc2F)N(C)C(=O)CC3)c1` [Example 23, 7-Fluoro-1-methyl-6-[5-(6-methyl-2-oxo-2H-pyridin-1-ylmethyl)-pyridin-3-yl]-3,4-dihydro-1H-quinolin-2-one] are 3130 nM and 12.5 nM.
In the same order, the values of `CN1C(=O)CCc2cc(-c3cncc(Cn4c(Cl)cccc4=O)c3)ccc21` [Example 17, 6-[5-(6-Chloro-2-oxo-2H-pyridin-1-ylmethyl)-pyridin-3-yl]-1-methyl-3,4-dihydro-1H-quinolin-2-one] are 363 nM and 2.2 nM.
As to `Cc1ccn(Cc2cncc(-c3ccc4c(c3)CCC(=O)N4C)c2)c(=O)c1` [Example 8, 1-Methyl-6-[5-(4-methyl-2-oxo-2H-pyridin-1-ylmethyl)-pyridin-3-yl]-3,4-dihydro-1H-quinolin-2-one], the EC50 in experiment [1] stood at 1050 nM; in experiment [2], 27 nM.
In the same order, the values of `CN1C(=O)CCc2cc(-c3cncc(Cn4cc(C(F)(F)F)cc(F)c4=O)c3)ccc21` [Example 5, 6-[5-(3-Fluoro-2-oxo-5-trifluoromethyl-2H-pyridin-1-ylmethyl)-pyridin-3-yl]-1-methyl-3,4-dihydro-1H-quinolin-2-one] are 1080 nM and 13.2 nM.
In the same order, the values of `CN1C(=O)CCc2cc(-c3cncc(Cn4cc(Cl)ccc4=O)c3)ccc21` [Example 9, 6-[5-(5-Chloro-2-oxo-2H-pyridin-1-ylmethyl)-pyridin-3-yl]-1-methyl-3,4-dihydro-1H-quinolin-2-one] are 516 nM and 10.5 nM.
`CN1C(=O)CCc2cc(-c3cncc(Cn4ccsc4=O)c3)ccc21` [Example 3, 1-Methyl-6-[5-(2-oxo-thiazol-3-ylmethyl)-pyridin-3-yl]-3,4-dihydro-1H-quinolin-2-one]: the EC50 in experiment [1] was 275 nM; in experiment [2], 3.6 nM.
In the same order, the values of `Cc1c(Cn2c(Cl)cccc2=O)cncc1-c1cc2c(cc1F)N(C)C(=O)CC2` [Example 25, 6-[5-(6-Chloro-2-oxo-2H-pyridin-1-ylmethyl)-4-methyl-pyridin-3-yl]-7-fluoro-1-methyl-3,4-dihydro-1H-quinolin-2-one] are 234 nM and 2.1 nM.
In the same order, the values of `Cc1ccn(Cc2cncc(-c3cc4c(cc3F)N(C)C(=O)CC4)c2)c(=O)c1` [Example 20, 7-Fluoro-1-methyl-6-[5-(4-methyl-2-oxo-2H-pyridin-1-ylmethyl)-pyridin-3-yl]-3,4-dihydro-1H-quinolin-2-one] are 506 nM and 11.6 nM.

For orientation: EC50 means the concentration giving half of the maximal effect. High values mean lower potency in that assay, low ones higher potency in that assay.
